Several values for one entry are separate records, joined by “and”; a condition that tells them apart may be missing. Equal values may be shown once. Blank lines part the entries; values can stand above or below the molecule they belong to.
What was measured:
[1] = system: EAE rat model (spinal cord); assay: PET imaging in the EAE rat model; format: in vivo; settings: for higher uptake (AUC of time activity curve) in the spinal cord of EAE rats compared to CFA control: dynamic PET 60 min, peak of clinical symptoms; for higher difference EAE vs control compared with the fluorinated compound: [11C]DPA-813 vs [18F]DPA-814, [11C]DPA-713 vs [18F]DPA-714
TSPO in human MS tissues = assay: Autoradiography on genotyped human MS brain tissue (HAB, MAB, LAB); format: binding
From the text: Brain tissues from MS patients (n = 7) were used in this study and were obtained from the MS centre of the Amsterdam University Medical Centers (AUMC). For some patient material, several brain tissues were available. The MS centre received permission from the Ethical Committee of the AUMC (Amsterdam, The Netherlands) to perform autopsies for tissue use and access to medical records for research purposes. All patients and controls, or their next of kin, had given informed consent for autopsy and use of brain tissue for research purposes.
TSPO rs6971 SNP was determined with a Taqman assay (C_2512465_20, ThermoFisher Scientific, The Netherlands). DNA was isolated from human MS brain tissue cryosections using a QIAmp mini kit from Qiagen according to the manufacturer’s recommendation. The concentration of the isolated DNA was determined on a nanodrop (NanoVue Plus, Biochrom). DNA concentration ranged from 45 to 246 µg/mL. QPCR was performed on a QuantStudio (Applied Biosystems, The Netherlands). Synthetic DNA (300 bp) for the two TSPO SNP alleles, rs6971-A, and rs6971-G, was used as a control for the Taqman assay. DNA samples were diluted 1/100 in milliQ water, and 4.5 µL was used for the QPCR. Control DNA sequences were reconstituted in 10 ng/mL in milliQ water. The final QPCR solution contained 5 µL TaqPath proAmp master mix (ThermoFisher Scientific, The Netherlands), 0.5 µL Taqman SNP, and 4.5 µL DNA. Results of the Taqman assay are summarised in Supplementary Tables 4 and Supplementary Fig. 2.
Human MS tissue cryosections (20 μm) were mounted on glass slides, air-dried, and stored at − 80 °C until needed. Prior to use, the sections were washed three times in PBS for 5 min each, then dried under an airflow. […] For blocking experiments, tissue sections were co-incubated with PK 11195 (10 µM) and the tracer. After incubation, sections were washed for 90 s three times each in ice-cold PBS and then dipped in deionized water twice. The sections were air-dried and exposed to a phosphor screen BAS-IP SR 2025 (General Electric, Eindhoven, The Netherlands). Phosphor screens were subsequently imaged using a Typhoon FLA 7000 imager (General Electric, Eindhoven, The Netherlands), and signal intensity was quantified using ImageLab software (BioRad, Lunteren, The Netherlands).

[2] = Ex vivo metabolite analysis (plasma and brain) in wild-type rats; parameters: species or system rat; settings: i.v.
Protocol: Metabolite analysis was conducted following the method outlined in a previous study. Wistar/RccHan (WIST) rats (Inotiv, the Netherlands) received intravenous injections of either [^11C]DPA-813 (30–50 MBq) or [^18F]DPA-814 (20–30 MBq). Rats were euthanized at 5, 15, and 45 min post-injection (n = 4 per time point). Plasma was separated from blood then processed through a C18 Sep-Pak (Waters, Milford, MA, USA). After washing with 3 mL of water to isolate the polar fraction, the non-polar fraction was eluted using 2 mL of methanol and 1 mL of water and subsequently analyzed by HPLC. The brain tissue was collected and homogenized in a mixture of MeCN and H2O (50/50, 4 mL) before centrifugation (5 min, 4000 rpm, 20 °C, Hettich Universal 32). The obtained supernatant was separated from the precipitate and analyzed via HPLC. Analytical HPLC was performed using a Dionex UltiMate 3000 HPLC system equipped with Chromeleon software (version 6.8), utilizing a Gemini C18 5-µm (10 × 250 mm) column (Phenomenex, Torrance, CA, USA). All fractions were assessed for radioactivity using a Wizard Gamma counter 1470 or 2480 (Wallac/PerkinElmer, Waltham, MA, USA).

rat TSPO = target: T1, rat TSPO (Rattus norvegicus, UniProt P16257); assay: Competitive binding to rat TSPO vs [3H]PK 11195 (Eurofins assay #226700, rat heart membranes); settings: vs DPA-713 / DPA-714
T1 construct: Heart of male Wistar derived rats weighing 175 ± 25 g are used to prepare peripheral benzodiazepine membrane receptors [TSPO]; tissue Eurofins Panlabs Discovery Services assay #226700; host or cells: rat heart (male Wistar derived)
Protocol: Binding affinities (Ki) to wild-type (WT) and A147T human TSPO were assessed using a previously published method. HEK-293T cells were stably transfected with WT and A147T TSPO. Membranes were isolated from each cell line using an Ultra-Turrax hand-held homogeniser. These cells have been previously validated as an in vitro model for low- and high-affinity TSPO binding. […] Non-specific binding was determined using a saturating concentration (1 µM) of non-tritiated PK 11195. This non-specific binding contributed less than 10% of total binding. Reactions were halted by filtering through a 96-well glass-fibre filter plate (Millipore), followed by eight washes with ice-cold 50 mM Tris HCl. Microscint 0 was added to the plate and resultant radioactivity-related photons were collected by a Microbeta 2450 (PerkinElmer). Ki values were fit to a competition binding curve fit on non-specific binding-corrected data using GraphPad Prism 10.0 (GraphPad). Results are presented as mean ± standard error of the mean (SEM) from at least three independent experiments. Binding affinities (Ki) to rat TSPO were measured in duplicate by Eurofins Panlabs Discovery Services (assay #226700) (Supplementary Fig. 12). Single-dose (10 µM) off-target in vitro screening was performed in duplicate by Eurofins Panlabs Discovery Services (Supplementary Table 5).
Supplementary Figure 12 Dose-response curves and binding affinities of DPA-813 and DPA-814 showing competitive binding to rat TSPO vs [^3H]PK 11195. Method from Eurofins: Heart of male Wistar derived rats weighing 175 ± 25 g are used to prepare peripheral benzodiazepine membrane receptors [TSPO] in modified Tris-HCl buffer pH 7.5. A 0.25 mg aliquot is incubated with 0.3 nM [^3H]PK 11195 for 15 minutes at 25 °C. Non-specific binding is estimated in the presence of 100 μM Dipyridamole. Membranes are filtered and washed, the filters are then counted to determine [^3H]PK 11195 specifically bound.

[3] = Ex vivo biodistribution in wild-type rats; parameters: species or system rat; settings: i.v.
Protocol: Wistar/RccHan (WIST) rats from Inotiv, the Netherlands, received intravenous injections via a tail vein catheter of either [^11C]DPA-813 (30–50 MBq) or [^18F]DPA-814 (20–30 MBq). The rats were euthanized at 5, 15, and 45 min post-injection (n = 4 per time point). Blood, heart, lungs, liver, spleen, kidney, urine, bone, brain, duodenum, small intestine, skin, and muscle were collected, weighed, and their radioactivity measured using a Wizard Gamma counter 1470 or 2480 (Wallac/PerkinElmer, Waltham, MA, USA). Entire organs were collected, except for larger organs like the liver and lungs, where only a portion was dissected. The radioactivity uptake in each organ was expressed as the percentage of the injected dose per gram of tissue (%ID/g).

Compound: CCN(CC)C(=O)Cc1c(-c2ccc(OCC[18F])cc2)nn2c(C)cc(C)nc12 [[^18F]DPA-714, reference compound]
higher uptake (AUC of time activity curve) in the spinal cord of EAE rats compared to CFA control [1]: 27%

Compound: CCN(CC)C(=O)Cc1c(-c2ccc(O[11CH3])cc2)nn2c(C)cc(C)nc12 [[^11C]DPA-713, reference compound]
higher difference EAE vs control compared with the fluorinated compound [1]: 2.5 folds | higher uptake (AUC of time activity curve) in the spinal cord of EAE rats compared to CFA control [1]: 67%

ratio of the binding quantification [11C]DPA-813/[11C]DPA-713 (TSPO in human MS tissues; HAB human MS tissue): 1 ± 0.2 | ratio of the binding quantification [11C]DPA-813/[11C]DPA-713 (TSPO in human MS tissues; LAB human MS tissue): 3 | ratio of the binding quantification [11C]DPA-813/[11C]DPA-713 (TSPO in human MS tissues; MAB human MS tissue): 1.6 ± 0.1 | Brain, Parent (intact tracer) ([2]; 5 min post-injection): 99.7 ± 0.1% | Plasma, Parent (Intact tracer) ([2]; 5 min post-injection): 87.9 ± 2.4% | Brain, Parent (intact tracer) ([2]; 15 min post-injection): 99.6 ± 0.3% | Plasma, Parent (Intact tracer) ([2]; 15 min post-injection): 85.5 ± 3.2% | Brain, Parent (intact tracer) ([2]; 45 min post-injection): 98.9 ± 0.9% | Plasma, Parent (Intact tracer) ([2]; 45 min post-injection): 67.2 ± 2.9% and 67% | higher affinity to rat TSPO compared to the parent compound (rat TSPO): 24 fold | Biodistribution, Blood ([3]; 5 min post-injection): 0.31 ± 0.1 %ID/g | Biodistribution, Bone ([3]; 5 min post-injection): 0.28±0.1 %ID/g | Biodistribution, Brain ([3]; 5 min post-injection): 0.41 ± 0.1 %ID/g | Biodistribution, Duodenum ([3]; 5 min post-injection): 1.44±0.2 %ID/g | Biodistribution, Heart ([3]; 5 min post-injection): 3.70±0.5 %ID/g | Biodistribution, Kidney ([3]; 5 min post-injection): 3.80±0.5 %ID/g | Biodistribution, Liver ([3]; 5 min post-injection): 1.42±0.4 %ID/g | Biodistribution, Lungs ([3]; 5 min post-injection): 29.84±3. %ID/g | Biodistribution, Skin ([3]; 5 min post-injection): 0.09±0.1 %ID/g | Biodistribution, Small intestine ([3]; 5 min post-injection): 1.04±0.4 %ID/g | Biodistribution, Tail ([3]; 5 min post-injection): 1.30±0.6 %ID/g | Biodistribution, Urine ([3]; 5 min post-injection): 0.03±0.0 %ID/g | Biodistribution, muscle ([3]; 5 min post-injection): 0.07±0.0 %ID/g | Biodistribution, spleen ([3]; 5 min post-injection): 4.62±0.6 %ID/g | Biodistribution, Blood ([3]; 15 min post-injection): 0.34±0.1 %ID/g | Biodistribution, Bone ([3]; 15 min post-injection): 0.35±0.1 %ID/g | Biodistribution, Brain ([3]; 15 min post-injection): 0.39±0.0 %ID/g | Biodistribution, Duodenum ([3]; 15 min post-injection): 1.37±0.1 %ID/g | Biodistribution, Heart ([3]; 15 min post-injection): 4.57±0.2 %ID/g | Biodistribution, Kidney ([3]; 15 min post-injection): 4.31±0.5 %ID/g | Biodistribution, Liver ([3]; 15 min post-injection): 1.69 ± 0.2 %ID/g | Biodistribution, Lungs ([3]; 15 min post-injection): 24.03±7. %ID/g | Biodistribution, Skin ([3]; 15 min post-injection): 0.10±0.0 %ID/g | Biodistribution, Small intestine ([3]; 15 min post-injection): 0.77±0.3 %ID/g | Biodistribution, Tail ([3]; 15 min post-injection): 1.18±0.1 %ID/g | Biodistribution, Urine ([3]; 15 min post-injection): 0.02±0.0 %ID/g | Biodistribution, muscle ([3]; 15 min post-injection): 0.10±0.0 %ID/g | Biodistribution, spleen ([3]; 15 min post-injection): 5.88±1.8 %ID/g | Biodistribution, Blood ([3]; 45 min post-injection): 0.27 ± 0.01 %ID/g | Biodistribution, Bone ([3]; 45 min post-injection): 0.26±0.1 %ID/g | Biodistribution, Brain ([3]; 45 min post-injection): 0.34 ± 0.1 %ID/g | Biodistribution, Duodenum ([3]; 45 min post-injection): 1.51±0.1 %ID/g | Biodistribution, Heart ([3]; 45 min post-injection): 4.28±0.3 %ID/g | Biodistribution, Kidney ([3]; 45 min post-injection): 4.20±0.6 %ID/g | Biodistribution, Liver ([3]; 45 min post-injection): 1.68±0.3 %ID/g | Biodistribution, Lungs ([3]; 45 min post-injection): 16.13±3.5 %ID/g | Biodistribution, Skin ([3]; 45 min post-injection): 0.12±0.04 %ID/g | Biodistribution, Small intestine ([3]; 45 min post-injection): 1.18±0.2 %ID/g | Biodistribution, Tail ([3]; 45 min post-injection): 1.33±0.7 %ID/g | Biodistribution, Urine ([3]; 45 min post-injection): 0.23±0.3 %ID/g | Biodistribution, muscle ([3]; 45 min post-injection): 0.12±0.03 %ID/g | Biodistribution, spleen ([3]; 45 min post-injection): 6.66±1.2 %ID/g
Compound: Cc1cc(C)n2nc(-c3ccc(O[11CH3])cc3)c(CC(=O)N(C)c3ccccc3)c2n1 [[^11C]DPA-813]
higher difference EAE vs control compared with the fluorinated compound [1]: 3 folds | higher uptake (AUC of time activity curve) in the spinal cord of EAE rats compared to CFA control [1]: 64%

— paper PMC12119672, “Development and evaluation of [^11C]DPA-813 and [^18F]DPA-814: novel TSPO PET tracers insensitive to human single nucleotide polymorphism rs6971” (European Journal of Nuclear Medicine and Molecular Imaging, 2025)
